Data on seven molecules can be found in ChEMBL document CHEMBL5108030, “Structure activity relationships leading to the identification of the indirect activator of AMPK, R419” (Bioorg Med Chem, 2022).

For series [1], the target named is AMP-activated protein kinase, AMPK. Description: Activation of AMPK in human HepG2 cells assessed as reduction in mitochondrial ATP production incubated for 1 hr. The format is cell-based.
For series [2] the target is unchanged. As to the kind of experiment: Activation of AMPK in human HepG2 cells assessed as increase in ACC phosphorylation at Ser79 incubated for 1 hr. In kind it is cell-based.
Another series concerns NCI-H1299. As to the kind of experiment: Antiproliferative activity against human NCI-H1299 cells assessed as cell growth inhibition incubated for 48 hrs by DAPI staining assay. As to conditions: NCI-H1299, 48 h. In kind it is functional, cell-based.
The subject of a further series is A549. As to the kind of experiment: Antiproliferative activity against human A549 cells assessed as cell growth inhibition incubated for 48 hrs by DAPI staining assay. The format is functional, cell-based. As to conditions: A549, 48 h.
For series [3], the target named is T1, hERG (KCNH2) (Homo sapiens, UniProt Q12809). Description: Inhibition of human ERG at 10 uM. In kind it is toxicity.
T1 sequence (Q12809 whole entry): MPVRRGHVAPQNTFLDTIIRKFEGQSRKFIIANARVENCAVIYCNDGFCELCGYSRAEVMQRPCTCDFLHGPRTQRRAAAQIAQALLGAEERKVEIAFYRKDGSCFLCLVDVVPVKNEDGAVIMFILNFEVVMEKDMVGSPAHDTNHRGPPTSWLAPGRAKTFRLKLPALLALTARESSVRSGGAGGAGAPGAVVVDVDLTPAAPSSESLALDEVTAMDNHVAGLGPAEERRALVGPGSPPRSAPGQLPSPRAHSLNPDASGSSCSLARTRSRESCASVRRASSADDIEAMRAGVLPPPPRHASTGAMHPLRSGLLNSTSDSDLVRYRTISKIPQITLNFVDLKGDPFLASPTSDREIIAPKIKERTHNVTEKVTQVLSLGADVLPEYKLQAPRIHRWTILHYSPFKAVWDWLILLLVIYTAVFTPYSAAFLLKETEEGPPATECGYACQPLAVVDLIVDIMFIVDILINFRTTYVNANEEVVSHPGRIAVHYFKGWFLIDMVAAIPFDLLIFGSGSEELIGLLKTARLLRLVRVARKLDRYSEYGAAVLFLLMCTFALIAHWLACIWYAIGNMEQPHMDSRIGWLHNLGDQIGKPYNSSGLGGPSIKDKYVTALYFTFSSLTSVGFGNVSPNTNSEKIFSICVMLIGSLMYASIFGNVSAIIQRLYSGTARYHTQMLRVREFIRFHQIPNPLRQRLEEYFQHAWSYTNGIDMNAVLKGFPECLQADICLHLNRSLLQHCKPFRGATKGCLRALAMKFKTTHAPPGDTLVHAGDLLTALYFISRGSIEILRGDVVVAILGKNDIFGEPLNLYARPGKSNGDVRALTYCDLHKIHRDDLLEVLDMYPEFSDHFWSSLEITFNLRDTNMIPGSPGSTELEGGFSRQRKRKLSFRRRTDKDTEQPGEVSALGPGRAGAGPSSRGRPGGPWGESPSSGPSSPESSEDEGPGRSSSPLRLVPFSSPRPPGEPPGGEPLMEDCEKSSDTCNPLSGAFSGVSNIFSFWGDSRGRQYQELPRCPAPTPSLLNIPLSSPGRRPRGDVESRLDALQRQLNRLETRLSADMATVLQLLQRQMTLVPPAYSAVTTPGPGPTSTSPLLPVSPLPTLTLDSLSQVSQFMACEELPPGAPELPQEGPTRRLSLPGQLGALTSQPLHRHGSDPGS
Series [4] can be described thus: AUC in rat at 5 mg/kg,po measured upto 10 hrs. In kind it is ADME, organism-based. Set-up: time < 10 hrs, dose 5 mg/kg, route po. Conditions: in vivo.
Series [5] is described as follows: AUC in C57BL/6J mouse at 5 mg/kg,po measured after 10 days. Set-up: time 10 day, dose 5 mg/kg, route po. In kind it is ADME, organism-based. Conditions: in vivo, 240 h.
Series [6] in a line: Clearance in rat at 1 mg/kg,iv measured upto 10 hrs. Conditions: in vivo. The format is ADME, organism-based.
A short description of series [7]: Microsomal stability in human liver microsomes assessed as half life. The format is ADME, Microsome.
Series [8] in a line: Drug concentration in diet-induced obesity model of C57BL/6J mouse at 200 mg/kg,po measured after 10 days. Conditions: in vivo, time 10 day, read-out: Drug uptake. In kind it is ADME, organism-based.
The nature of series [9]: AUC in diet-induced obesity model of C57BL/6J mouse at 200 mg/kg,po measured after 10 days. In kind it is ADME, organism-based. Also on record: time 10 day, dose 200 mg/kg, route po. As to conditions: in vivo, 240 h.
A short description of series [10]: Drug concentration in high fat diet-induced obesity model of C57BL/6J mouse at 100 mg/kg,po measured after 10 days. In kind it is ADME, organism-based. As to conditions: in vivo, time 10 day, read-out: Drug uptake.
Series [11] is described as follows: Volume of distribution at steady state in rat at 1 mg/kg,iv measured upto 10 hrs. Conditions: in vivo, read-out: Vdss. The format is ADME, organism-based.
Series [12] in a line: Drug concentration in diet-induced obesity model of C57BL/6J mouse at 100 mg/kg,po measured after 10 days. As to conditions: in vivo, time 10 day, read-out: Drug uptake. In kind it is ADME, organism-based.
The target of series [13] is T2, Cytochrome P450 3A4 (Homo sapiens, UniProt P08684). As to the kind of experiment: Inhibition of CYP3A4 (unknown origin) in presence of NADPH. In kind it is ADME.
T2 sequence (P08684 whole entry): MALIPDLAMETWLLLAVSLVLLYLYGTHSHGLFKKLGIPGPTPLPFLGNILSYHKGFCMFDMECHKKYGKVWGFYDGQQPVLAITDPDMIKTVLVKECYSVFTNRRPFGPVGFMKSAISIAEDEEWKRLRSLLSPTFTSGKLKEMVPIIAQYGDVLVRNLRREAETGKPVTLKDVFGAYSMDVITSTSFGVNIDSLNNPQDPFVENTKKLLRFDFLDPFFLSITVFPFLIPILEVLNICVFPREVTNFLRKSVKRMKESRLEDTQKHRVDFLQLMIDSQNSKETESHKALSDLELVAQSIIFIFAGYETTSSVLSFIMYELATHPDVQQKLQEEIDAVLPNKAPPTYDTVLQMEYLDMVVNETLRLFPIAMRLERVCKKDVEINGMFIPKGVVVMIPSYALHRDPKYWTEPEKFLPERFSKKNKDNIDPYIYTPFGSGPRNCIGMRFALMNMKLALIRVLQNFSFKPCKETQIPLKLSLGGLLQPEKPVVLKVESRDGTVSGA
The nature of series [14]: AUC in diet-induced obesity model of C57BL/6J mouse at 100 mg/kg,po measured after 10 days. In kind it is ADME, organism-based. Also on record: time 10 day, dose 100 mg/kg, route po. Conditions: in vivo, 240 h.
The target in series [15] is T1, hERG (KCNH2). As to the kind of experiment: Inhibition of human ERG at 3 uM. The format is toxicity.
In series [16] the test system is Mus musculus. Description: Hypoglycemic activity in high fat diet-induced obesity mouse model assessed as improvement in glucose tolerance at 200 mg/kg,po for 4 weeks by OGTT. The format is functional, organism-based.
A short description of series [17]: Drug concentration in C57BL/6J mouse at 5 mg/kg,po measured after 10 days. The format is ADME, organism-based. Conditions: in vivo, time 10 day, read-out: Drug uptake.
Series [18] in a line: Half life in rat at 1 mg/kg,iv measured upto 10 hrs. The format is ADME, organism-based. Conditions: in vivo.
A short description of series [19]: AUC in high fat diet-induced obesity model of C57BL/6J mouse at 100 mg/kg,po measured after 10 days. The format is ADME, organism-based. Also on record: dose 100 mg/kg, time 10 day, route po. Conditions: in vivo, 240 h.
Series [20] is described as follows: Oral bioavailability in rat at 5 mg/kg measured upto 10 hrs. The format is ADME, organism-based. Conditions: in vivo.
In series [21] the test system is Mus musculus. Description: Hypoglycemic activity in high fat diet-induced obesity mouse model assessed as decrease in AUC blood glucose at 200 mg/kg,po for 4 weeks by OGTT. In kind it is functional, organism-based.
The target of series [22] is T2, Cytochrome P450 3A4. Description: Inhibition of CYP3A4 (unknown origin). The format is ADME.

The source made the active and inactive calls. The rule behind the calls is not given here. Where only a bound is given, the exact number is not on record here.

As a reminder, the IC50 is the concentration that gives 50% inhibition. By EC50 is commonly meant the concentration at which the effect is half-maximal. As a reminder, the inhibition is the percentage by which the read-out fell short of the control. Lower therefore signals a response near the control. For `O=C(NC1CCN(Cc2ccc(F)cc2)CC1)c1ccc(C(=O)N2CCC(C(=O)c3ccc(-n4cccn4)cc3)CC2)nc1`, the IC50 in series [1] came out at 890 nM; with NCI-H1299, 6580 nM; in the series on A549 it was 5930 nM. Moreover, the EC50 in [2] is 21 nM. This molecule came in with an inhibition at 10 µM on hERG (KCNH2) [3] of 85%.
What is called clearance is the rate of elimination divided by the concentration. Broadly, the half-life is how long it takes for the measured level to halve. As usually defined, the bioavailability is dose-corrected exposure relative to a reference, in per cent. Lower therefore signals poor availability. Consider `COc1ccc(C(=O)C2CCN(C(=O)c3ccc(C(=O)NC4CCN(Cc5ccc(C#N)cc5)CC4)cn3)CC2)cc1`, for which the AUC at 10 h in series [4] stood at 256 ng·h/mL. Besides, the AUC in series [5] was determined as 937 ng·h/kg; in series [9], 2429 ng·h/kg; in [14], 1339 ng·h/kg; in series [19], 1283 ng·h/kg. Further, the IC50 was 2.82 nM in [1]; more than 20000 nM in the series on NCI-H1299; more than 20000 nM in the series with A549; more than 10000 nM on Cytochrome P450 3A4 [13]; more than 10000 nM on Cytochrome P450 3A4 [22]. For the same molecule, the clearance in [6] worked out at 150 mL/min/kg. For the same molecule, the concentration giving a half-maximal response (EC50) in series [2] was found to be 31 nM. Moreover, the half-life in series [7] is 1.18 h; in series [18] it was 2.7 h. The concentration at 240 h stood at 140 ng/mL in [8], 64 ng/mL in series [10], 84 ng/mL in [12] and 440 ng/mL in [17]. Moreover, in series [11], the Vd was 15.1 L/kg. At hERG (KCNH2) [15], this molecule registered an inhibition at 3 µM of 61%. For the same molecule, the outcome in the series on Mus musculus [16] and in the series with Mus musculus [21] was Active. In addition, in [20], the bioavailability came to 46%.
Turning to `O=C(NC1CCN(Cc2ccc(F)cc2)CC1)c1ccc(C(=O)N2CCC(C(=O)c3ccc(N4CCCC4)cc3)CC2)nc1`, the IC50 in series [1] turned out to be 730 nM; in the series on NCI-H1299, 9270 nM; in the series with A549 it was 8670 nM. Moreover, the clearance in series [6] was 269 mL/min/kg. Besides, the EC50 in series [2] was 12 nM. At hERG (KCNH2) [3], this molecule had an inhibition at 10 µM of 82%. For the same molecule, the half-life in [7] came to 1.05 h.
Consider `COc1ccc(C(=O)C2CCN(C(=O)c3ccc(C(=O)NC4CCN(Cc5ccc(OC(F)(F)F)cc5)CC4)cn3)CC2)cc1`, for which the IC50 in series [1] is 820 nM; in the series with NCI-H1299, more than 20000 nM; with A549, more than 20000 nM. In addition, the EC50 in series [2] was found to be 9 nM. On hERG (KCNH2) [3], this molecule came in with an inhibition at 10 µM of 21%.
For the molecule `COc1ccc(OC2CCN(C(=O)c3ccc(C(=O)NC4CCN(Cc5ccc(C#N)cc5)CC4)nc3)CC2)cc1`, the 50% inhibitory concentration (IC50) in series [1] was 60 nM; at Cytochrome P450 3A4 [13], more than 10000 nM; at Cytochrome P450 3A4 [22] it was more than 10000 nM. The same molecule returned a clearance in [6] of 71 mL/min/kg. The half-maximal effective concentration (EC50) in [2] was 11 nM. In series [7], the half-life is 1.13 h. The inhibition at 3 µM against hERG (KCNH2) [15] turned out to be 46%.
Turning to `N#Cc1ccc(CN2CCC(NC(=O)c3ccc(C(=O)N4CCC(C(=O)c5ccc(F)cc5F)CC4)cn3)CC2)cc1`, the values for the IC50 (in series [1]; at Cytochrome P450 3A4 [13]; against Cytochrome P450 3A4 [22]) were 8 nM, more than 10000 nM and more than 10000 nM, respectively. The EC50 in [2] was determined as 27 nM. For the same molecule, the half-life in [7] worked out at 1.05 h. Besides, at hERG (KCNH2) [15], at 3 µM the inhibition was 34%.
With `N#Cc1ccc(CN2CCC(NC(=O)c3ccc(C(=O)N4CCN(Cc5ccc(F)cc5)CC4)cn3)CC2)cc1`, the clearance in series [6] is 200 mL/min/kg. Also, the 50% effective concentration (EC50) in [2] came out at 1 nM. Also, in [7], the half-life amounted to 0.917 h. Besides, on hERG (KCNH2) [15], testing at 3 µM gave an inhibition of 36%.
